The target in this test is T1, GST-tagged-Wee1 kinase (Homo sapiens, UniProt P30291).
T1 construct: purchased Carnabio (Carna Biosciences) 05-177
T1 sequence (P30291 whole entry): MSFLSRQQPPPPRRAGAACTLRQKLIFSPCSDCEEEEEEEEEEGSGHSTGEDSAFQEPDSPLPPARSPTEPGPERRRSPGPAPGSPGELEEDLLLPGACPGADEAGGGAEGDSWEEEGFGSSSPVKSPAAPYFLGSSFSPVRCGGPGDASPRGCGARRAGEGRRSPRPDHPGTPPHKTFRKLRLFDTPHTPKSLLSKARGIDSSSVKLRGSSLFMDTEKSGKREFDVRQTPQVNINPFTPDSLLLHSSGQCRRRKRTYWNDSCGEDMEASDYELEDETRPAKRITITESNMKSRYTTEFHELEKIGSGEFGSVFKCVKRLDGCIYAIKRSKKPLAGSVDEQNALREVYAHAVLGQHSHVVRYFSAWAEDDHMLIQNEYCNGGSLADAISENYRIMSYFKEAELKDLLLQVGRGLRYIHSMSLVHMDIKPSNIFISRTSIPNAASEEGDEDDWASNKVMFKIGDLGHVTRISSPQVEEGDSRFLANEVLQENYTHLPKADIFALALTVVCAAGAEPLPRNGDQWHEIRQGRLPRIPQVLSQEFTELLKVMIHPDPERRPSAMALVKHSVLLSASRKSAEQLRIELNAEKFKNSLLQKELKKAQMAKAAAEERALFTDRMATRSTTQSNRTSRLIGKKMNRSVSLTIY
In words: Wee1 time-resolved fluorescence equilibrium binding assay (displacement of Oregon Green-labeled ATP-competitive kinase probe). The settings on record: read-out: Wee-1 inhibition (Ki). In outline:
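Ki values derive from competitive displacement, under equilibrium, of a fast-reversible ATP-site Oregon Green kinase probe from GST-tagged Wee1, detected by time-resolved fluorescence.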
Usually Ki stands for a dissociation constant, usually derived from enzyme kinetics or from competition with a known ligand. As to `CN1CCCc2cc(Nc3ncc4c(=O)n(-c5ccccc5Cl)c5nccn5c4n3)ccc21` [Example 92, 6-(2-chlorophenyl)-2-[(1-methyl-1,2,3,4-tetrahydroquinolin-6-yl)amino]imidazo[1,2-a]pyrimido[5,4-e]pyrimidin-5(6H)-one], the Ki was below 10 nM.

As for `CN(C)CCN1CCc2cc(Nc3ncc4c(=O)n(-c5ccccc5Cl)c5nccn5c4n3)ccc21` [Example 93, 6-(2-chlorophenyl)-2-({1-[2-(dimethylamino)ethyl]-2,3-dihydro-1H-indol-5-yl}amino)imidazo[1,2-a]pyrimido[5,4-e]pyrimidin-5(6H)-one], the Ki was below 10 nM. To `CN(C)C1Cc2ccc(Nc3ncc4c(=O)n(-c5ccccc5Cl)c5nccn5c4n3)cc2C1` (stereo not shown) [Example 94, 6-(2-chlorophenyl)-2-{[2-(dimethylamino)-2,3-dihydro-1H-inden-5-yl]amino}imidazo[1,2-a]pyrimido[5,4-e]pyrimidin-5(6H)-one] belongs below 10 nM; to `Cc1cc(Nc2ncc3c(=O)n(-c4c(F)cccc4Cl)c4nccn4c3n2)ccc1N1CCCN(C)CC1` [Example 96, 6-(2-chloro-6-fluorophenyl)-2-{[3-methyl-4-(4-methyl-1,4-diazepan-1-yl)phenyl]amino}imidazo[1,2-a]pyrimido[5,4-e]pyrimidin-5(6H)-one], below 10 nM. To `CN1Cc2cc(Nc3ncc4c(=O)n(-c5c(F)cccc5Cl)c5nccn5c4n3)ccc2C(C)(C)C1` [Example 97, 6-(2-chloro-6-fluorophenyl)-2-[(2,4,4-trimethyl-1,2,3,4-tetrahydroisoquinolin-7-yl)amino]imidazo[1,2-a]pyrimido[5,4-e]pyrimidin-5(6H)-one] belongs below 10 nM; to `CN1CCN(c2ccc(Nc3ncc4c(=O)n(-c5c(F)cccc5F)c5nccn5c4n3)cc2)CC1` [Example 98, 6-(2,6-difluorophenyl)-2-{[4-(4-methylpiperazin-1-yl)phenyl]amino}imidazo[1,2-a]pyrimido[5,4-e]pyrimidin-5(6H)-one], 10 to 100 nM; to `O=c1c2cnc(Nc3ccc4c(c3)CN(CCO)CC4)nc2n2ccnc2n1-c1ccccc1Cl` [Example 99, 6-(2-chlorophenyl)-2-{[2-(2-hydroxyethyl)-1,2,3,4-tetrahydroisoquinolin-7-yl]amino}imidazo[1,2-a]pyrimido[5,4-e]pyrimidin-5(6H)-one], below 10 nM. As for `CN1CCCN(c2ccc(Nc3ncc4c(=O)n(-c5ccccc5Cl)c5nccn5c4n3)cc2CO)CC1` [Example 100, 6-(2-chlorophenyl)-2-{[3-(hydroxymethyl)-4-(4-methyl-1,4-diazepan-1-yl)phenyl]amino}imidazo[1,2-a]pyrimido[5,4-e]pyrimidin-5(6H)-one], the figure is below 10 nM; as for `O=c1c2cnc(Nc3ccc(N4CCN5CCCC5C4)cc3)nc2n2ccnc2n1-c1ccccc1Cl` (stereo not shown) [Example 101, 6-(2-chlorophenyl)-2-{[4-(hexahydropyrrolo[1,2-a]pyrazin-2(1H)-yl)phenyl]amino}imidazo[1,2-a]pyrimido[5,4-e]pyrimidin-5(6H)-one], below 10 nM. `Cc1cc(Nc2ncc3c(=O)n(-c4ccccc4Cl)c4nccn4c3n2)ccc1O` [Example 102, 6-(2-chlorophenyl)-2-[(4-hydroxy-3-methylphenyl)amino]imidazo[1,2-a]pyrimido[5,4-e]pyrimidin-5(6H)-one]: the Ki is below 10 nM. Take `CCN(CC)CCCOc1ccc(Nc2ncc3c(=O)n(-c4ccccc4Cl)c4nccn4c3n2)cc1C` [Example 103, 6-(2-chlorophenyl)-2-({4-[3-(diethylamino)propoxy]-3-methylphenyl}amino)imidazo[1,2-a]pyrimido[5,4-e]pyrimidin-5(6H)-one]: the inhibition constant (Ki) was below 10 nM.

For the molecule `Cc1cc(Nc2ncc3c(=O)n(-c4ccccc4Cl)c4nccn4c3n2)ccc1N1CCNCC1` [Example 104, 6-(2-chlorophenyl)-2-{[3-methyl-4-(piperazin-1-yl)phenyl]amino}imidazo[1,2-a]pyrimido[5,4-e]pyrimidin-5(6H)-one], the Ki is below 10 nM. As for `Cc1cc(Nc2ncc3c(=O)n(-c4ccccc4Cl)c4nccn4c3n2)ccc1N1CCCNCC1` [Example 105, 6-(2-chlorophenyl)-2-{[4-(1,4-diazepan-1-yl)-3-methylphenyl]amino}imidazo[1,2-a]pyrimido[5,4-e]pyrimidin-5(6H)-one], the figure is below 10 nM; as for `O=c1c2cnc(Nc3ccc4c(c3)CCCNC4)nc2n2ccnc2n1-c1ccccc1Cl` [Example 106, 6-(2-chlorophenyl)-2-(2,3,4,5-tetrahydro-1H-2-benzazepin-7-ylamino)imidazo[1,2-a]pyrimido[5,4-e]pyrimidin-5(6H)-one], below 10 nM. To `CN1CCc2ccc(Nc3ncc4c(=O)n(-c5ccccc5Cl)c5nccn5c4n3)cc2CC1` [Example 107, 6-(2-chlorophenyl)-2-[(3-methyl-2,3,4,5-tetrahydro-1H-3-benzazepin-7-yl)amino]imidazo[1,2-a]pyrimido[5,4-e]pyrimidin-5(6H)-one] belongs below 10 nM; to `CN1CCc2ccc(Nc3ncc4c(=O)n(-c5ccccc5Cl)c5nccn5c4n3)cc2C1(C)C` [Example 108, 6-(2-chlorophenyl)-2-[(1,1,2-trimethyl-1,2,3,4-tetrahydroisoquinolin-7-yl)amino]imidazo[1,2-a]pyrimido[5,4-e]pyrimidin-5(6H)-one], below 10 nM; to `O=c1c2cnc(Nc3ccc4c(c3)CNCC43CC3)nc2n2ccnc2n1-c1c(Cl)cccc1Cl` [Example 109, 6-(2,6-dichlorophenyl)-2-(2′,3′-dihydro-1′H-spiro[cyclopropane-1,4′-isoquinolin]-7′-ylamino)imidazo[1,2-a]pyrimido[5,4-e]pyrimidin-5(6H)-one], below 10 nM.

As for `Cc1cc(Nc2ncc3c(=O)n(-c4c(Cl)cccc4Cl)c4nccn4c3n2)ccc1N1CCNCC1` [Example 110, 6-(2,6-dichlorophenyl)-2-{[3-methyl-4-(piperazin-1-yl)phenyl]amino}imidazo[1,2-a]pyrimido[5,4-e]pyrimidin-5(6H)-one], the Ki was below 10 nM. As for `O=c1c2cnc(Nc3ccc4c(c3)CNCC4)nc2n2ccnc2n1-c1c(Cl)cccc1Cl` [Example 111, 6-(2,6-dichlorophenyl)-2-(1,2,3,4-tetrahydroisoquinolin-7-ylamino)imidazo[1,2-a]pyrimido[5,4-e]pyrimidin-5(6H)-one], the figure is below 10 nM; as for `CCc1cc(Nc2ncc3c(=O)n(-c4ccccc4Cl)c4nccn4c3n2)ccc1N1CCN(C)CC1` [Example 112, 6-(2-chlorophenyl)-2-{[3-ethyl-4-(4-methylpiperazin-1-yl)phenyl]amino}imidazo[1,2-a]pyrimido[5,4-e]pyrimidin-5(6H)-one], below 10 nM. For `CC1(C)CN(CC2CCCCC2)Cc2cc(Nc3ncc4c(=O)n(-c5ccccc5Cl)c5nccn5c4n3)ccc21` [Example 113, 6-(2-chlorophenyl)-2-{[2-(cyclohexylmethyl)-4,4-dimethyl-1,2,3,4-tetrahydroisoquinolin-7-yl]amino}imidazo[1,2-a]pyrimido[5,4-e]pyrimidin-5(6H)-one], the inhibitory constant (Ki) was below 10 nM. Take `CN(C)C1Cc2ccc(Nc3ncc4c(=O)n(-c5c(Cl)cccc5Cl)c5nccn5c4n3)cc2C1` (stereo not shown) [Example 114, 6-(2,6-dichlorophenyl)-2-{[2-(dimethylamino)-2,3-dihydro-1H-inden-5-yl]amino}imidazo[1,2-a]pyrimido[5,4-e]pyrimidin-5(6H)-one]: the Ki was below 10 nM.
